In a melting point compilation (Tetko et al.; mined from patent text by program, amines drawn as free bases though some values may be those of a salt):

SMILES	melting point [°C]
Oc1c(-c2ccccc2)cc(Cn2c(=S)sc3ccccc32)cc1-c1ccccc1	145 to 146
O[C@@H]1CN=C(c2ccc(Cl)c(Cl)c2)O[C@H]1c1ccccc1 (racemic)	158
CNC(=O)c1cccc(Cl)c1Nc1nc(Nc2ccc3c(c2)CCC(N2CCC(N4CCN(C)CC4)CC2)CC3)ncc1Cl (stereo not drawn)	171 to 175
CCCCN(CCCC)CCCCCCOc1ccc([C@H]2c3ccc(OCc4ccccc4)cc3OC[C@H]2c2ccccc2)cc1 (racemic)	72 to 73.5
C#CCn1c(-c2ccccc2)nc(O)c(CC)c1=O	159 to 160
Fc1cc2c(-c3cccs3)c(CBr)cnc2c(F)c1F	98 to 100
Cc1cc(Cl)c2[nH]nc(C)c2n1	176 to 178
O=C(O)c1ccc(C(=O)NOCCC23CC4CC(CC(C4)C2)C3)cc1	197 to 200
Clc1cnc2c(C(Cl)(Cl)Cl)cc(Cl)cc2c1	198
COCSCCNC(=C[N+](=O)[O-])SC	54 to 58
N#Cc1ccc(Cc2nccc(-c3ccc(C#N)cc3)n2)cc1	155 to 156
COc1cccc([N+](=O)[O-])c1N	67 to 68
O=C1N(Cc2ccc(N3CCOCC3)nc2)c2ccccc2C12COc1cc3c(cc12)OCCO3 (stereo not drawn)	117 to 119
O=C1NC(=O)c2c1c(-c1ccccc1)cc1[nH]c3ccccc3c21	262 to 264
NC(=S)c1cc(Cl)c(Cl)c(Cl)n1	168 to 169
Fc1ccc(C(=C(c2ccccc2)C(F)(F)F)c2ccc(OCCN3CCOCC3)cc2)cc1	95 to 96
Cc1ccc(S(=O)(=O)N2CCC[C@H](C(C#N)(c3ccccc3)c3ccccc3)C2)cc1	148 to 150
CCN1C(=O)C(=C(C)O)SC1=S	93
Clc1cc(N2CCCCCC2)nc(-c2ccccc2)n1	64 to 66
Cn1c2c(c3ccccc31)Cc1ccccc1-2	152
C=C(C)COc1cc(C)c2c(c1C)CC(C)(C)N2C=O	83 to 95
CC(C)CNc1c2c(nc3cn[nH]c13)CCCC2	124 to 127
CON=Cc1ncn2c1CN(C)C(=O)c1c(Cl)cccc1-2	173 to 174
C=CCNc1c(C(N)=O)cnc2cn[nH]c12	254 to 258
CCOC(=O)N1Cc2ccnnc2C(NN=C(C)C)C1 (stereo not drawn)	171 to 174
O=C(O)CCCCCCCNS(=O)(=O)c1ccccc1	82 to 84
CC(=O)OCCC(C(N)=O)C1(C)OCCc2c1[nH]c1ccccc21 (stereo not drawn)	141 to 143

SMILES	melting point [°C]
N#Cc1ccc(-c2ccc(-c3ccc(C#N)cn3)o2)cc1	301 to 302
CC(C)Cn1c(CO)nc2c(N)nc3c(c21)CCCC3	226
CC(C)c1nn(-c2ccc(Cl)cn2)cc1CCCO	93 to 95
O=C(O)CC(=O)OCC(Cl)(Cl)Cl	42 to 43
NN1C(=O)c2ccc(Cl)cc2C1=O	172 to 175
CCCCCCCCCCCCCCOc1ccc(N)cc1OCCCCCCCCCCCCCC	55 to 58
Cc1oc(-c2ccc(C(F)(F)F)cc2)nc1-c1ccc2c(Br)c(OC(Cc3ccccc3)C(=O)O)ccc2c1 (stereo not drawn)	195 to 197
CCOC(=O)C1[C@@H]2[C@@H](O)[C@@H]3O[C@H](c4ccc(C(F)(F)F)cc4)OC[C@H]3O[C@H]12 (stereo partly drawn)	128 to 131
O=C(c1cn(Cc2ccccc2Cl)nn1)N1CCCCC1	141 to 142
CS(=O)(=O)N[C@@H](CCCCNC=O)C(=O)NC[C@H](CC1(C(=O)N[C@@H](Cc2ccc(O)cc2)C(=O)O)CCCC1)C(=O)O	56 to 60
CC(=O)N(c1nc2nc(C)cc(C)n2n1)S(=O)(=O)c1c(Cl)cccc1Cl	219 to 222
Cc1cc(Br)cc2c(C(C)C)c[nH]c12	170
COCc1ncc(C(=O)O)s1	131
Nc1snc2nc(-c3ccccc3)sc12	176 to 179
CC(C)(C)C(=O)OC1CCC2C3(O)C=CC4=CC(=O)CCC4(CO)C3CCC12C (stereo not drawn)	201 to 203
CCn1cc(C(=O)O)c(=O)c2cc(F)c(S(=O)(=O)CC)nc21	249 to 252
CC1CN(c2n[nH]c(-c3ccc(Cl)cc3)c2-c2ccncc2)CCN1 (stereo not drawn)	235 to 237
Cc1ccc(S(=O)(=O)OC2CCC3(CC2)OCCO3)cc1	65 to 67.5
COc1ccc2cccc(C(CO)CNC(=O)CF)c2c1 (stereo not drawn)	49 to 51
NC(=O)c1csc(-c2cccc([N+](=O)[O-])c2)n1	239 to 241
CC(C)(C)Oc1ccc(I)cc1	40 to 41.5
O=C1CCCC(=O)C1C(=O)c1ccccc1[N+](=O)[O-]	132 to 135
CC1CC(=O)NN=C1c1ccc(NC(=O)OC2CCC2)cc1 (stereo not drawn)	245 to 246
NC(=O)c1cnc(N)c([N+](=O)[O-])c1	289 to 290
C=C(C)c1csc(SC)c1	71 to 73
CC(C)CC1CCCCc2c1oc(=O)c(C(c1ccccc1)C1CC1)c2O (stereo not drawn)	164 to 167

Further lines, results first:

melting point [°C]	SMILES
184 to 186	O=C(O)COc1cc(Cl)ccc1C(=O)NCc1ccc(Cl)cc1
45 to 47	COc1cc(C=CC(=O)C=Cc2cc(OC)c(OC)c(OC)c2)cc(OC)c1OC
212 to 214	CCCCOc1ccccc1Nc1ncc(C(=O)O)c(=O)[nH]1
165 to 166	CC(=O)NC=Cc1ccc(OC(C)=O)cc1
105 to 107	COC(=O)c1sc(C)c(Cl)c1O
192 to 194	CCCOc1cc2sc(C(=O)O)cc2cc1OCC
65 to 68	CNCc1ccc(-c2ccc(OC)c(Br)c2)cc1
240	O=C(O)CCCn1nc(-c2c(-c3ccccc3)nn3ccccc23)ccc1=O
81 to 83	COC(=O)c1cc(CCc2cc(OC)ccc2OC)ccc1NC(C)=O
140 to 141	O=C(O)c1cc2cc(Br)ccc2nc1N[C@H](Cc1ccccc1)C(=O)O
135 to 136	Cn1cc(C(=O)NCc2ccc(Cl)cc2)c(=O)c2scc(COCC[Si](C)(C)C)c21
> 250	CCOC(=O)Cn1c(=O)c(=O)[nH]c2ccc3ccc(-n4ccc(CNC(=O)c5ccccc5)c4)cc3c21
223	CCN1CCc2ccc(Nc3ncc(Cl)c(Nc4cc(Cl)ccc4C(=O)NC)n3)cc2CC1
198 to 199	COc1cc(OC)c(-c2cccs2)cc1/C=C/C(=O)c1ccc(S(=O)(=O)Nc2ccon2)cc1
119 to 120	Cc1cccc(C)c1NC(=O)N=C1CCCN1C
154 to 156	CCS(=O)(=O)Oc1cn(C)c2cc(F)ccc2c1=O
222 to 224	COc1cc(OC)c(-c2nc3cccnc3[nH]2)cc1C=CC(=O)c1ccc(C(=O)O)cc1
> 250	Nc1cccc(C(=O)Nc2ccc(-c3c[nH]c(=O)cn3)cc2)c1
136 to 137	CCCOc1ccc(C(=O)CBr)cc1-c1nc2c(CCC)nn(C)c2c(=O)[nH]1
182 to 184	CNC(=O)OCc1c(COC(=O)NC)c(-c2ccc(OC)cc2)n2c1Cc1ccccc1C2
185 to 186	CC(C)(C)Cc1c(CC(C)(C)C(=O)O)n(Cc2ccc(Cl)cc2)c2ccc(OCc3ccc4scc(Cl)c4n3)cc12
188 to 189	C[Si](C)(C)c1ccc2cc(C(=O)Nc3ccc(N4CC(O)C4)nc3)n(Cc3cccc(F)c3)c2c1
140 to 142	CC(C)OC(=O)c1ccc(Cl)cc1S(N)(=O)=O
127 to 128	COc1ccnc(CCc2nc3cc(-c4ccc(S(=O)(=O)N(CCO)CCO)cc4)cnc3[nH]2)c1
140	O=C(NO)[C@H](CNS(=O)(=O)c1ccc(OCc2ccc(F)cc2)cc1)N1CCCCC1

melting point [°C]	SMILES
93 to 95	COc1cccc(-c2ccc(O)cc2)c1
165 to 166	Cc1cc([N+](=O)[O-])ccc1NC(=O)n1nc(Oc2cccc(C(F)(F)F)c2)cc1C
280	CCOC(=O)c1c[nH]c2cc(F)c(OC)cc2c1=O
265 to 268	O=c1[nH]c2cc(Cl)ccc2c(O)c1Sc1cccc(Br)c1
146 to 148	COc1ccc(N2CCN(c3c(C)c(C)c4c(c3C)C(Cc3ccccc3)C(C)(C)O4)CC2)cc1 (stereo not drawn)
214 to 216	COc1cc(N2CCC(N3CCN(C)CC3)CC2)ccc1Nc1ncc2ccc(-c3cccc(S(=O)(=O)NC(C)(C)C)c3)n2n1
108 to 109	O=C(Nc1ccc(-n2nc(C(F)(F)F)cc2C(F)(F)F)cc1)c1ccccc1Oc1ccccc1
141 to 143	COc1ccc(CCNC(=O)C(=O)NCc2ccccn2)cc1OC1CCCC1
162 to 165	COc1ccccc1Oc1ccc([N+](=O)[O-])cc1C(=O)O
128 to 129	CCOC(=O)CCc1cc(C(=O)CCC(=O)O)ccc1OC
155 to 156	CCC(CC)Nc1cc(-c2c(-c3cccc(C)c3)nc3cccnn23)ccn1
176	NC(=O)c1c[nH]c2cccc(OCc3ccccc3)c12
87 to 88	c1ccc2cc(Cn3ccnc3)ccc2c1
226	CNc1ccc(CN2C(=O)C(C)(c3ccccc3Cl)c3cc(Cl)ccc32)c(OC)c1 (stereo not drawn)
210	COC(=O)c1ccc(SCn2cc(I)cnc2=O)cc1
91 to 93	COC(=O)COc1ccc(C=O)cc1OC
123 to 125	CCOC(=O)c1cc2c(OC=O)c(OC[C@H]3CO3)ccc2[nH]1
185 to 187	COc1cc(N)c(Cl)cc1C(=O)NC1CCN(C)C1 (stereo not drawn)
202 to 204	COc1cc2c(cc1OCC(=O)O)C1Cc3c(Cl)cc(OC)c(OCC(=O)O)c3CN1CC2 (stereo not drawn)
210 to 213	CCOC(=O)c1ccc2c(c1)S(=O)c1ccccc1-2 (stereo not drawn)
63 to 64	Cc1ccc2c(c1)CC(Cl)c1cc(F)ccc1S2 (stereo not drawn)
139 to 141	CCOC(=O)C(=O)c1cn(CC)c2cc(-c3ccc(C(F)(F)F)cc3)ccc12
88 to 90	CC1(C)C2CC[C@@]1(C)C(=O)C(C(=O)Nc1ccc(Cl)cc1)C2=O (stereo partly drawn)
101 to 102	CCNc1cc(Oc2cccc(C(F)(F)F)c2)nc(C(=O)NN=CC(F)(F)C(F)(F)F)c1
123 to 124	COc1ccc(CN2CC(NC(=O)c3ccc(OCC=C(C)CCC=C(C)C)cc3)CN2Cc2ccc(OC)cc2)cc1
